Source: patent publication US9149038B2, “4-amino-6-(heterocyclic)picolinates and 6-amino-2-(heterocyclic)pyrimidine-4-carboxylates and their use as herbicides” (Dow AgroSciences LLC, priority 2013, dated 2015)
Where two headings read alike, the source gives them in different places.

What was measured:
[1] = system: Key Broadleaf Weed and Crop Species; test: Post-Emergent Test II: postemergent herbicidal activity, visual rating after 14 d (Table 7); type: in vivo; conditions: post-emergence, 336 h; for pest or weed control at 35 g/ha: 35 g ai/ha; for pest or weed control at 70 g/ha: 70 g ai/ha; for pest or weed control at 140 g/ha: 140 g ai/ha
Summary of the method: (§1)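 Plants were raised in a greenhouse for 7-21 d and treated once at the first or second true leaf stage. Compounds, dissolved in 97:3 acetone:DMSO then diluted into an aqueous acetone/isopropanol/crop oil/Triton X-155 carrier, were applied by overhead track sprayer at 187 L/ha. After 14 d with subirrigation, injury was scored visually from 0 (none) to 100 (complete kill).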

[2] = system: Key Grass and Sedge Weeds as well as Grass Crops; test: Post-Emergent Test II: postemergent herbicidal activity, visual rating after 14 d (Table 8); type: in vivo; conditions: post-emergence, 336 h; for pest or weed control at 35 g/ha: 35 g ai/ha; for pest or weed control at 70 g/ha: 70 g ai/ha; for pest or weed control at 140 g/ha: 140 g ai/ha
Summary of the method: as §1

[3] = lambsquarters (Chenopodium album), read-out: Visual Growth Reduction (%) 14 Days After Application CHEAL
[4] = oilseed rape, canola (Brassica napus), read-out: Visual Growth Reduction (%) 14 Days After Application BRSNN
[5] = redroot pigweed (Amaranthus retroflexus), read-out: Visual Growth Reduction (%) 14 Days After Application AMARE
[6] = sunflower (Helianthus annuus), read-out: Visual Growth Reduction (%) 14 Days After Application HELAN
[7] = velvetleaf (Abutilon theophrasti), read-out: Visual Growth Reduction (%) 14 Days After Application ABUTH
[8] = wild poinsettia (Euphorbia heterophylla), read-out: Visual Growth Reduction (%) 14 Days After Application EPHHL
[9] = barnyardgrass (Echinochloa crus-galli), read-out: Visual Growth Reduction (%) 14 Days After Application ECHCG
[10] = giant foxtail (Setaria faberi), read-out: Visual Growth Reduction (%) 14 Days After Application SETFA
[11] = maize, corn (Zea mays), read-out: Visual Growth Reduction (%) 14 Days After Application ZEAMX
[12] = rice (Oryza sativa), read-out: Visual Growth Reduction (%) 14 Days After Application ORYSA
[13] = wheat, spring (Triticum aestivum), read-out: Visual Growth Reduction (%) 14 Days After Application TRZAS
[14] = yellow nutsedge (Cyperus esculentus), read-out: Visual Growth Reduction (%) 14 Days After Application CYPES

Row | SMILES | pest or weed control at 35 g/ha [1, 3] | pest or weed control at 70 g/ha [1, 3] | pest or weed control at 140 g/ha [1, 3] | pest or weed control at 35 g/ha [1, 4] | pest or weed control at 70 g/ha [1, 4] | pest or weed control at 140 g/ha [1, 4] | pest or weed control at 35 g/ha [1, 5] | pest or weed control at 70 g/ha [1, 5] | pest or weed control at 140 g/ha [1, 5] | pest or weed control at 35 g/ha [1, 6] | pest or weed control at 70 g/ha [1, 6] | pest or weed control at 140 g/ha [1, 6] | pest or weed control at 35 g/ha [1, 7] | pest or weed control at 70 g/ha [1, 7] | pest or weed control at 140 g/ha [1, 7] | pest or weed control at 35 g/ha [1, 8] | pest or weed control at 70 g/ha [1, 8] | pest or weed control at 140 g/ha [1, 8] | pest or weed control at 35 g/ha [2, 9] | pest or weed control at 70 g/ha [2, 9] | further results
1 | COC(=O)c1nc(-c2c(F)cc3c(c2F)OC(F)(F)O3)cc(N)c1Cl [Compound 46] | 95 to 100% | 95 to 100% | 95 to 100% | 95 to 100% | 95 to 100% | 95 to 100% | 95 to 100% | 95 to 100% | 95 to 100% | 0 to 29% | 30 to 44% | 60 to 74% | 85 to 94% | 95 to 100% | 95 to 100% | 30 to 44% | 60 to 74% | 85 to 94% | 45 to 59% | 60 to 74% | pest or weed control at 140 g/ha [2, 9]: 85 to 94%; pest or weed control at 35 g/ha [2, 10]: 0 to 29%; pest or weed control at 70 g/ha [2, 10]: 0 to 29%; pest or weed control at 140 g/ha [2, 10]: 0 to 29%; pest or weed control at 35 g/ha [2, 11]: 0 to 29%; pest or weed control at 70 g/ha [2, 11]: 45 to 59%; pest or weed control at 140 g/ha [2, 11]: 75 to 84%; pest or weed control at 35 g/ha [2, 12]: 0 to 29%; pest or weed control at 70 g/ha [2, 12]: 0 to 29%; pest or weed control at 140 g/ha [2, 12]: 0 to 29%; pest or weed control at 35 g/ha [2, 13]: 0 to 29%; pest or weed control at 70 g/ha [2, 13]: 30 to 44%; pest or weed control at 140 g/ha [2, 13]: 45 to 59%; pest or weed control at 35 g/ha [2, 14]: 95 to 100%; pest or weed control at 70 g/ha [2, 14]: 95 to 100%; pest or weed control at 140 g/ha [2, 14]: 95 to 100%
2 | COC(=O)c1nc(-c2ccc3c(c2)OC(C)(C)O3)nc(N)c1OC [Compound 67] | 0 to 29% | 0 to 29% | 0 to 29% | 0 to 29% | 0 to 29% | 0 to 29% | 0 to 29% | 0 to 29% | 0 to 29% | 0 to 29% | 0 to 29% | 0 to 29% | 0 to 29% | 0 to 29% | 0 to 29% | 60 to 74% | 95 to 100% | 95 to 100% | 0 to 29% | 45 to 59% | pest or weed control at 140 g/ha [2, 9]: 75 to 84%; pest or weed control at 35 g/ha [2, 10]: 0 to 29%; pest or weed control at 70 g/ha [2, 10]: 45 to 59%; pest or weed control at 140 g/ha [2, 10]: 60 to 74%; pest or weed control at 35 g/ha [2, 11]: 0 to 29%; pest or weed control at 70 g/ha [2, 11]: 60 to 74%; pest or weed control at 140 g/ha [2, 11]: 60 to 74%; pest or weed control at 35 g/ha [2, 12]: 0 to 29%; pest or weed control at 70 g/ha [2, 12]: 0 to 29%; pest or weed control at 140 g/ha [2, 12]: 0 to 29%; pest or weed control at 35 g/ha [2, 13]: 0 to 29%; pest or weed control at 70 g/ha [2, 13]: 0 to 29%; pest or weed control at 140 g/ha [2, 13]: 0 to 29%; pest or weed control at 35 g/ha [2, 14]: 0 to 29%; pest or weed control at 70 g/ha [2, 14]: 0 to 29%; pest or weed control at 140 g/ha [2, 14]: 45 to 59%
